This is an account of results in ChEMBL document CHEMBL1122002, “Crystal structures and pharmacological activity of calcium channel antagonists: 2,6-dimethyl-3,5-dicarbomethoxy-4-(unsubstituted, 2-methyl-, 4-methyl-, 3-nitro-, 4-nitro-, and 2,4-dinitrophenyl)-1,4-dihydropyridine” (J Med Chem, 1982).

The species named for one series is Cavia porcellus. The series can be described thus: Inhibition of muscarinic receptor mediated [Ca2+] dependent contraction of guinea pig ileal longitudinal smooth muscle. It is filed as functional.
Series [1] addresses Voltage-gated L-type calcium channel (Homo sapiens, UniProt Q13936+Q13698+Q01668+O60840). Briefly: Calcium channel antagonistic activity relative to 2,6-Dimethyl-4-(2-nitro-phenyl)-1,4-dihydro-pyridine-3,5-dicarboxylic acid dimethyl ester(=100). The series is classed as functional, Cavia porcellus. Particulars: guinea pig.

A value given as a limit tells only on which side of the number the result lay.

Take `COC(=O)C1=C(C)N=C(C)/C(=C(\O)OC)C1c1ccc([N+](=O)[O-])cc1[N+](=O)[O-]` (configuration not stated): the ID50 in the series filed under Cavia porcellus was >50000 nM. The Relative activity in series [1] is on record as < 0.05.

As to `COC(=O)C1=C(C)N=C(C)/C(=C(\O)OC)C1c1cccc(C)c1` (configuration not stated), the ID50 in the series listed under Cavia porcellus was 110 nM. Further, the Relative activity in series [1] turned out to be 4.6. For `COC(=O)C1=C(C)NC(C)=C(C(=O)OC)C1c1ccccc1`, in the series listed under Cavia porcellus, the ID50 was 28 nM. For the same compound, the Relative activity in series [1] is 18. The matching figures for `COC(=O)C1=C(C)NC(C)=C(C(=O)OC)C1c1ccccc1[N+](=O)[O-]` [NIFEDIPINE]: 5.1 nM and 100. For the compound `COC(=O)C1=C(C)NC(C)=C(C(=O)OC)C1c1ccc(N(C)C)cc1`, the ID50 in the series listed under Cavia porcellus turned out to be 50000 nM. Further, in series [1], the Relative activity is listed as 0.005. In the same order, the values of `CCOC(=O)C1=C(C)NC(C)=C(C(=O)OCC)C1c1ccccc1` are 30 nM and ~ 18.

On to `COC(=O)C1=C(C)N=C(C)/C(=C(\O)OC)C1c1c(F)c(F)c(F)c(F)c1F` (configuration not stated), for which, in the series listed under Cavia porcellus, the ID50 came to 0.9 nM. `COC(=O)C1=C(C)N=C(C)/C(=C(\O)OC)C1c1ccc(C)cc1` (configuration not stated) yielded an ID50 in the series listed under Cavia porcellus of 50000 nM. Moreover, the Relative activity in series [1] is < 0.05.

In the series filed under Cavia porcellus, `COC(=O)C1=C(C)N=C(C)/C(=C(\O)OC)C1c1cccc(C#N)c1` (configuration not stated) yielded an ID50 of 300 nM. The Relative activity in series [1] is 1.7.
